According to ChEMBL document CHEMBL1201862, “PubChem BioAssay data set” (2004):
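All cell lines were grown in 96-well plates and treated with compound for 48 hours. GI50 = concentration required for 50% inhibition of growth.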 The source made the active and inactive calls. Rule as the data show it: active = GI50 up to about 1.1 µM and inactive = higher.

Columns and labels:
Assay in all cases: NCI tumour cell line growth inhibition, 48 h
[1] = tested on: KM-20L2
[2] = tested on: DLD-1
[3] = tested on: OVCAR-4
[4] = tested on: HCT-15
[5] = tested on: NCI-H226
[6] = tested on: SK-MEL-2
[7] = tested on: COLO 205
[8] = tested on: RXF 393
[9] = tested on: HCC 2998
[10] = tested on: SN12C
[11] = tested on: OVCAR-3
[12] = tested on: SR
[13] = tested on: RXF 631
[14] = tested on: LXFL 529
[15] = tested on: EKVX
[16] = tested on: UACC-257
[17] = tested on: DMS-273
[18] = tested on: UACC-62
[19] = tested on: NCI-H522
[20] = tested on: KM12
[21] = tested on: HT-29
[22] = tested on: TK-10
[23] = tested on: OVCAR-5
[24] = tested on: SNB-19
[25] = tested on: RPMI-8226
[26] = tested on: SF-295
[27] = tested on: HOP-62
[28] = tested on: NCI-H460
[29] = tested on: SK-MEL-5
[30] = tested on: ACHN
[31] = tested on: U-251
[32] = tested on: A549
[33] = tested on: NCI-H23
[34] = tested on: HOP-18
[35] = tested on: MOLT-4
[36] = tested on: LOX IMVI
[37] = tested on: SK-MEL-28
[38] = tested on: XF498
[39] = tested on: CCRF-CEM
[40] = tested on: OVCAR-8
[41] = tested on: CAKI-1
[42] = tested on: 786-0
[43] = tested on: SW-620
[44] = tested on: Malme-3M
[45] = tested on: HCT-116
[46] = tested on: SK-OV-3
[47] = tested on: K562
[48] = tested on: HL-60
[49] = tested on: SF-539
[50] = tested on: DMS-114
[51] = tested on: SNB-75
[52] = tested on: M14
[53] = tested on: HOP-92
[54] = tested on: IGROV-1
[55] = tested on: SNB-78
[56] = tested on: M19-MEL

COC(=O)CCC(=O)Nc1ccc(Cl)cc1C
GI50 [1]: > 48.4 µM (inactive)
GI50 [2]: > 100 µM (inactive)
GI50 [3]: > 75.7 µM (inactive)
GI50 [4]: > 100 µM
GI50 [5]: > 52.6 µM (inactive)
GI50 [6]: > 47.8 µM (inactive)
GI50 [7]: > 64.9 µM (inactive)
GI50 [8]: > 63 µM (inactive)
GI50 [9]: > 100 µM (inactive)
GI50 [10]: > 23.2 µM (inactive)
GI50 [11]: 43.9 µM (inactive)
GI50 [12]: 5.47 µM (inactive)
GI50 [13]: > 29.9 µM (inactive)
GI50 [14]: 32.1 µM (inactive)
GI50 [15]: > 55.2 µM (inactive)
GI50 [16]: > 67.1 µM (inactive)
GI50 [17]: > 100 µM (inactive)
GI50 [18]: 14.3 µM (inactive)
GI50 [19]: 3.41 µM (inactive)
GI50 [20]: 15.5 µM (inactive)
GI50 [21]: > 100 µM (inactive)
GI50 [22]: > 100 µM (inactive)
GI50 [23]: > 100 µM (inactive)
GI50 [24]: > 100 µM (inactive)
GI50 [25]: 0.973 µM (active)
GI50 [26]: > 100 µM (inactive)
GI50 [27]: 39.4 µM (inactive)
GI50 [28]: > 100 µM (inactive)
GI50 [29]: > 92.9 µM (inactive)
GI50 [30]: > 37.2 µM (inactive)
GI50 [31]: > 22.4 µM (inactive)
GI50 [32]: > 22 µM (inactive)
GI50 [33]: > 71 µM (inactive)
GI50 [34]: > 100 µM (inactive)
GI50 [35]: 1.8 µM (inactive)
GI50 [36]: > 25.8 µM (inactive)
GI50 [37]: > 100 µM (inactive)
GI50 [38]: 13.5 µM (inactive)
GI50 [39]: 0.123 µM (active)
GI50 [40]: > 100 µM (inactive)
GI50 [41]: 23.4 µM (inactive)
GI50 [42]: > 50.8 µM (inactive)
GI50 [43]: > 100 µM (inactive)
GI50 [44]: > 100 µM (inactive)
GI50 [45]: > 100 µM (inactive)
GI50 [46]: > 100 µM (inactive)
GI50 [47]: 20.8 µM (inactive)
GI50 [48]: 0.399 µM (active)
GI50 [49]: > 100 µM (inactive)
GI50 [50]: 0.859 µM (active)
GI50 [51]: > 74.5 µM (inactive)
GI50 [52]: > 100 µM (inactive)
GI50 [53]: > 60.8 µM (inactive)
GI50 [54]: > 64 µM (inactive)
GI50 [55]: 98.4 µM (inactive)
GI50 [56]: > 100 µM (inactive)
